Results: patent US20160040251A1, “BIOMARKERS FOR THE IDENTIFICATION OF CHEMOSENSITIVITY” (PHARMACYCLICS, LLC, priority 2013, published 2016)

Columns and labels:
[1] = tested on: breast cancer cell lines (BCLs); assay: MTS cell viability assay in breast cancer cell lines; assay type: cell-based, human; settings: for drug-response profiles of BCLs (high- or low-dose sensitive) versus abexinostat profiles: other HDACi compounds; for drug-response profiles of BCLs (high- or low-dose sensitive) versus abexinostat profiles / IC50: 72 h; for IC50: Homo sapiens, 72 h treatment, MTS
Protocol: A large series of cell lines (16 BCLs) were exposed to increasing concentrations (150 nM-2.5 μM) of the abexinostat, for 72 hours. These series represent all the molecular diversity observed in breast cancers.
Cell lines. A total of 16 breast cancer cell lines (BCLs) were used for the study. HCC1500, HCC1937, HCC1954, Hs 578T, MCF7, MDA-MB-134, MDA-MB-231, MDA-MB-361, MDA-MB-436, […] were obtained from American type culture collection (http://www.atcc.org/). SUM149 and SUM159 were obtained from Dr S.
Ethier's (Karmanos Cancer Center, Detroit, Mich., USA). S68 was obtained from Dr V. Castros (University de Rennes, France) and Br-Ca-MZ-01 from Dr V. Möbus (University of Ulm, Germany). All BCLs tested were derived from carcinomas. BCLs were grown using the recommended culture conditions (Neve et al, Cancer Cell 2006).
Drugs. BCLs were continuously treated for 72h in adherent conditions with Histone Deacetylase Inhibitors (HDACi): abexinostat, SAHA and valproic acid. For experiments abexinostat was prepared in a 23,1 mM stock solution, SAHA in a 0.5M stock solution, in Dimethyl Sulfoxide (DMSO) and stored at −20° C. Valproic acid was prepared in a 1M stock solution in Phosphate Buffered Saline (PBS) and stored at 4° C. For experiments, cells were treated with respective IC50s. DMSO or PBS were used as vehicle control (C<0.1%).
Cell viability. Inhibitory Concentrations 50 (IC50s) were evaluated using 3-(4,5-dimethylthiazol-2-yl)-5-(3-carboxymethoxyphenyl)-2-(4-sulfophenyl)-2H-tetrazolium (MTS) assay. BCLs were plated in adherent condition in 96-well plates at 5,000 cells per well; except for SUM159 plated at 1,000 cells per well. After 24 h, treatment with serial dilutions of HDACi was started. The effect of treatment on cell viability was estimated after 72 h by addition of 100 μL MTS solution (5 mg/mL in PBS) in each well. Cells were then incubated for 1 h at 37° C. Absorbance was measured at 540 nm in a fluorescence plate reader.

[2] = tested on: patient-derived xenografts CRCM226X, CRCM392X, CRCM389X; assay: Tumor growth of patient-derived xenografts under treatment; assay type: in vivo, NOD/SCID mice; settings: abexinostat i.p. 12.5 mg/Kg twice a day 5 of 7 days, docetaxel 10 mg/kg weekly, three weeks
Description: To confirm the impact of abexinostat treatment on the CSC population from breast cancers with low XIST expression, three different patient-derived xenografts (PDXs) with distinct Xist expression level (CRCM226X, Xist^low; CRCM392X, Xist^med; CRCM389X, Xist^high) were utilized.
(§1) Animal models Cells from these PDXs were transplanted orthotopically into fat pads of NOD/SCID mice without cultivation in vitro. Single cancer cells (1,000,000 cells CRCM226X and CRCM389X, 125,000 cells CRCM392X) are injected into fat pads of NOD/SCID mice and tumor growth are monitored. When the tumor size was approximately 150 mm^3, treatment is started with abexinostat (i.p, 12.5 mg/Kg, twice a day, 5 out of 7 days for three weeks) or docetaxel (10 mg/kg weekly for three weeks) or placebo.
(§2) Six mice were injected for each PDX and for each group. After 1, 2 and 3 weeks of treatment, two mice from each group were sacrificed according to ethic statements. Tumors were dissociated and cells were analyzed for the ALDEFLUOR phenotype and tumorsphere formation capacity. Cells from 3-week treated mice were reimplanted into secondary NOD/SCID mice with injection of 1,000 cells for each treated tumor.

[3] = tested on: ALDEFLUOR-positive CSC population of PDXs CRCM226X, CRCM392X, CRCM389X; assay: ALDEFLUOR assay on residual PDX tumors; assay type: in vivo, NOD/SCID mice; settings: after three weeks of treatment
Protocol: as §1, §2
ALDEFLUOR assay The ALDEFLUOR kit (Stem Cell Technologies) was used to isolate the population with high aldehyde dehydrogenase (ALDH) enzymatic activity using an LSR2 cytometer as previously described (Ginestier et al, Cell Stem Cell, 2007). For BCLs cultivated in adherent condition, ALDEFLUOR-positive populations were evaluated after 72-hour treatment with HDACi (IC50s) or vehicle. Primary human xenografts CRCM226X, CRCM389X and CRCM392X were harvested on the 3rd week of treatment with abexinostat, docetaxel or placebo, dissociated and stained for ALDEFLUOR analysis. To eliminate cells of mouse origin from the xenotransplanted tumors, staining with an anti-H2K^d biotin antibody (1/200; BD Biosciences) followed by staining with a secondary antibody labeled with streptavidin e450 (1/200; eBioscience) was used.

[4] = tested on: patient-derived xenografts CRCM226X, CRCM392X, CRCM389X; assay: Reimplantation of cells from treated PDXs into secondary mice (tumorigenicity); assay type: in vivo, NOD/SCID mice
Protocol: as §2
Tumor growth was compared with that of placebo-treated controls. An inhibition of the CRCM226X (Xist^low) PDX growth after abexinostat and docetaxel treatment was observed. […] After three weeks of treatment, the animals were sacrificed and the proportion of ALDEFLUOR-positive CSCs was measured in each residual tumor (FIG. 6B). All PDX models presented an increase in the ALDEFLUOR-positive population isolated from docetaxel-treated tumors compared to the untreated control. […] Tumorigenicity is directly related to the presence of CSCs and this assay gives an estimate of the proportion of residual tumorigenic CSCs. For each treatment condition (placebo, abexinostat, docetaxel), 1,000 cells isolated from treated-tumors were reimplanted.

[5] = CRCM226X (Xist low), 1,000 cells from 3-week treated tumors reimplanted
[6] = CRCM389X (Xist high), 1,000 cells from 3-week treated tumors reimplanted
[7] = CRCM392X (Xist med), 1,000 cells from 3-week treated tumors reimplanted

SMILES	drug-response profiles of BCLs (high- or low-dose sensitive) versus abexinostat profiles [1]	drug-response profile compared to abexinostat profile ([1]; conventional chemotherapeutic agent, BCLs)	PDX tumor growth versus placebo ([2]; CRCM226X (Xist low))	PDX tumor growth versus placebo ([2]; CRCM389X (Xist high))	PDX tumor growth versus placebo ([2]; CRCM392X (Xist med))	ALDEFLUOR-positive population versus untreated control ([3]; CRCM226X (Xist low))	ALDEFLUOR-positive population versus untreated control ([3]; CRCM389X (Xist high))	ALDEFLUOR-positive population versus untreated control ([3]; CRCM392X (Xist med))	tumor regrowth after reimplantation versus placebo-treated [4, 5]	tumor regrowth after reimplantation versus placebo-treated [4, 6]	tumor regrowth after reimplantation versus placebo-treated [4, 7]	IC50 ([1]; nine BCLs sensitive to low-dose)	IC50 ([1]; seven BCLs sensitive to high-dose)
O=C(CCCCCCC(=O)Nc1ccccc1)NO [SAHA, vorinostat]	confirmed	–	–	–	–	–	–	–	–	–	–	–	–
CC(=O)O[C@@]12CO[C@@H]1C[C@H](O)[C@@]1(C)C(=O)[C@H](O)C3=C(C)[C@@H](OC(=O)[C@H](O)[C@@H](NC(=O)OC(C)(C)C)c4ccccc4)C[C@@](O)([C@@H](OC(=O)c4ccccc4)[C@H]21)C3(C)C [docetaxel]	–	totally distinct	inhibition	no or discrete effect	no or discrete effect	increase	increase	increase	tumor regrowth comparable to placebo-treated tumors	tumor regrowth comparable to placebo-treated tumors	tumor regrowth comparable to placebo-treated tumors	–	–
CN(C)Cc1c(C(=O)NCCOc2ccc(C(=O)NO)cc2)oc2ccccc12 [abexinostat]	–	–	inhibition	no or discrete effect	no or discrete effect	two-fold decrease	increase	two-fold decrease	incapacity to regenerate a tumor	higher regrowth kinetic	delay in tumor regrowth	170 to 460 nM	> 700 nM
CCCC(CCC)C(=O)O [Valproic Acid, valproic acid]	confirmed	–	–	–	–	–	–	–	–	–	–	–	–
